Data as given in BindingDB's records for doi:10.3109/14756366.2010.482047 (Academy of Sciences of The Czech Republic, 2011).

Biological target: T1, Cytosol aminopeptidase [33-68,L62W] (Sus scrofa, UniProt P28839, L62W)
T1 construct: 33-68
Test: Kinetic Inhibition Assay
Conditions: pH 8.4; 25 °C
Method: LAP was assayed in 75 mM triethanolamine hydrochloride buffer (pH = 8.4, containing 5 mM MgCl2) at 25°C. The substrate (L-leucine-p-nitroanilide) was dissolved in DMSO and added to the assay buffer followed by the enzyme. The hydrolysis of the substrate was monitored by the change in absorbance measured at 405 nm. All the inhibitor solutions were prepared in the assay buffer. The assay solution, which contained 0.05 mL of the substrate solution (0.2, 0.4, 0.6, 0.8, 1 mM final concentrations), 0.25 mL of an inhibitor solution (concentration dependent on the inhibitor), the enzyme solution (20 μg/ml final concentration) and adjusted to a 1 mL final volume.

T1 sequence (P28839 33-68 L62W): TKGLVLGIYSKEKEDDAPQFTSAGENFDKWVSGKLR

| Structure (SMILES) | Ki [µM] |
| --- | --- |
| CCCC[C@H](N)P(=O)(O)O [1-aminopentylphosphonic acid] | 58 |
| CSCC[C@H](N)P(=O)(O)O [Met-P (1)] | 22.6 |
| CSCC[C@H](N)[P@H](=O)O [Met-PH (2)] | 22 |
| CSCCC(N)P(=O)(O)CC(C)C(=O)O (configuration not stated) [Met-ψ[P(O)(OH)CH2]-Ala (5)] | 3.64 |
| CCCCC(N)[PH](=O)O (configuration not stated) [Nle-PH (4)] | 73.9 |
| CCCCC(N)P(=O)(O)O[C@@H](C)C(=O)O (stereo partly drawn) [Nle-ψ[P(O)(OH)O]-L-Ala (6)] | 269 |
| CCCCC(N)P(=O)(O)O[C@@H](C)C(=O)OC (stereo partly drawn) [Nle-ψ[P(O)(OH)O]-L-AlaOMe (7)] | 219 |
